PubChem BioAssay (NCI)
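Dose response: 5 concentrations. Exposure: 48 h. Format: 96-well plates. Endpoint: linear interpolation; highest concentration if not reached. GI50 marks 50% less growth. TGI is the concentration that stops growth completely.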

Key:
Test in all cases: NCI anticancer screen, dose series, 48 h
[1] = tested on: ACHN renal
[2] = tested on: HCC-2998 colon
[3] = tested on: A549 NSCLC
[4] = tested on: MDA-MB-435
[5] = tested on: SR leukemia
[6] = tested on: NCI-H460 lung
[7] = tested on: 786-0 renal
[8] = tested on: SK-OV-3 ovarian
[9] = tested on: OVCAR-4 ovarian
[10] = tested on: LOX IMVI melanoma
[11] = tested on: PC-3 prostate
[12] = tested on: HT29 colon
[13] = tested on: OVCAR-3 ovarian
[14] = tested on: KM12 colon
[15] = tested on: HS 578T breast
[16] = tested on: MDA-MB-231 breast
[17] = tested on: MCF7 breast
[18] = tested on: UACC-62 melanoma
[19] = tested on: IGROV1 ovarian
[20] = tested on: DU-145 prostate
[21] = tested on: NCI-H226 lung
[22] = tested on: SK-MEL-28 melanoma
[23] = tested on: OVCAR-8 ovarian
[24] = tested on: HCT-116 colon
[25] = tested on: SF-295 CNS
[26] = tested on: MOLT-4 leukemia
[27] = tested on: NCI/ADR-RES ovarian
[28] = tested on: HOP-62 NSCLC
[29] = tested on: SF-539 CNS
[30] = tested on: NCI-H522 lung
[31] = tested on: SK-MEL-5 melanoma
[32] = tested on: T-47D breast
[33] = tested on: SF-268 CNS
[34] = tested on: M14 melanoma
[35] = tested on: BT-549 breast
[36] = tested on: HCT-15 colon
[37] = tested on: EKVX NSCLC
[38] = tested on: CCRF-CEM leukemia
[39] = tested on: CAKI-1 renal
[40] = tested on: UO-31 renal
[41] = tested on: MALME-3M melanoma
[42] = tested on: U251 CNS
[43] = tested on: SN12C renal
[44] = tested on: TK-10 renal
[45] = tested on: COLO 205 colon
[46] = tested on: NCI-H23 lung
[47] = tested on: A498 renal
[48] = tested on: RXF 393 renal
[49] = tested on: HOP-92 NSCLC
[50] = tested on: SNB-75 CNS
[51] = tested on: UACC-257 melanoma
[52] = tested on: SK-MEL-2 melanoma
[53] = tested on: SW-620 colon
[54] = tested on: OVCAR-5 ovarian
[55] = tested on: SNB-19 CNS
[56] = tested on: RPMI-8226 leukemia
[57] = tested on: HL-60(TB) leukemia
[58] = tested on: K-562 leukemia

Q: Which TGI [1] does the source give for `C/C(=N/NC(=O)c1ccncc1)c1ccc(NC(=O)C(=O)Nn2c(=S)[nH]c3ccccc3c2=O)cc1` here?
A: > 100 µM

Q: What about the TGI [2] of the same compound?
A: > 100 µM

Q: What about the TGI [3] of the same compound?
A: > 100 µM

Q: And the TGI [4]?
A: > 100 µM

Q: What about the TGI [5] of the same compound?
A: > 100 µM

Q: What about the TGI [6] of the same compound?
A: > 100 µM

Q: And the TGI [7]?
A: > 100 µM

Q: And the TGI [8]?
A: > 100 µM

Q: And the TGI [9]?
A: > 100 µM

Q: And the TGI [10]?
A: > 100 µM

Q: And the TGI [11]?
A: > 100 µM

Q: What about the TGI [12] of the same compound?
A: > 100 µM

Q: And the TGI [13]?
A: > 100 µM

Q: And the TGI [14]?
A: > 100 µM

Q: What about the TGI [15] of the same compound?
A: > 100 µM

Q: And the TGI [16]?
A: > 100 µM

Q: And the TGI [17]?
A: > 100 µM

Q: And the TGI [18]?
A: > 100 µM

Q: What about the TGI [19] of the same compound?
A: > 100 µM

Q: And the TGI [20]?
A: > 100 µM

Q: And the TGI [21]?
A: > 100 µM

Q: And the TGI [22]?
A: > 100 µM

Q: And the TGI [23]?
A: > 100 µM

Q: And the TGI [24]?
A: > 100 µM

Q: What about the TGI [25] of the same compound?
A: > 100 µM

Q: And the TGI [26]?
A: > 100 µM

Q: What about the TGI [27] of the same compound?
A: > 100 µM

Q: What about the TGI [28] of the same compound?
A: > 100 µM

Q: And the TGI [29]?
A: > 100 µM

Q: And the TGI [30]?
A: > 100 µM

Q: And the TGI [31]?
A: > 100 µM

Q: What about the TGI [32] of the same compound?
A: > 100 µM

Q: And the TGI [33]?
A: > 100 µM

Q: What about the TGI [34] of the same compound?
A: > 100 µM

Q: What about the TGI [35] of the same compound?
A: > 100 µM

Q: What about the TGI [36] of the same compound?
A: > 100 µM

Q: And the TGI [37]?
A: > 100 µM

Q: And the TGI [38]?
A: > 100 µM

Q: What about the TGI [39] of the same compound?
A: > 100 µM

Q: What about the TGI [40] of the same compound?
A: > 100 µM

Q: What about the TGI [41] of the same compound?
A: > 100 µM

Q: And the TGI [42]?
A: > 100 µM

Q: And the TGI [43]?
A: > 100 µM

Q: And the TGI [44]?
A: > 100 µM

Q: What about the TGI [45] of the same compound?
A: > 100 µM

Q: And the TGI [46]?
A: > 100 µM

Q: And the TGI [47]?
A: > 100 µM

Q: What about the TGI [48] of the same compound?
A: > 100 µM

Q: And the TGI [49]?
A: > 100 µM

Q: And the TGI [50]?
A: > 100 µM

Q: What about the TGI [51] of the same compound?
A: > 100 µM

Q: And the TGI [52]?
A: > 100 µM

Q: And the TGI [53]?
A: > 100 µM

Q: And the TGI [54]?
A: > 100 µM

Q: And the TGI [55]?
A: > 100 µM

Q: And the TGI [56]?
A: > 100 µM

Q: What does the source list for `Cc1onc(-c2c(F)cccc2Cl)c1-c1ncc(-c2ccc(Cl)cc2)o1`?
A: GI50 [1]: 5.15 µM; TGI [1]: > 100 µM; GI50 [2]: 5.95 µM; TGI [2]: > 100 µM; GI50 [3]: 4.34 µM; TGI [3]: > 100 µM; GI50 [4]: 5.59 µM; TGI [4]: > 100 µM; GI50 [5]: 2.92 µM; TGI [5]: 31.3 µM; GI50 [6]: 3.18 µM; TGI [6]: > 100 µM; GI50 [7]: 5.14 µM; TGI [7]: > 100 µM; GI50 [8]: 9.33 µM; TGI [8]: > 100 µM; GI50 [9]: 13.9 µM; TGI [9]: > 100 µM; GI50 [11]: 4.21 µM; TGI [11]: > 100 µM; GI50 [12]: 3.89 µM; TGI [12]: > 100 µM; GI50 [13]: 8.84 µM; TGI [13]: > 100 µM; GI50 [14]: 5.59 µM; TGI [14]: > 100 µM; GI50 [57]: 4.02 µM; TGI [57]: > 100 µM; GI50 [15]: 14.1 µM; TGI [15]: > 100 µM; GI50 [16]: 6.5 µM; TGI [16]: > 100 µM; GI50 [17]: 4.49 µM; TGI [17]: > 100 µM; GI50 [18]: 2.7 µM; TGI [18]: > 100 µM; GI50 [58]: 4.35 µM; TGI [58]: > 100 µM; GI50 [19]: 6.44 µM; TGI [19]: > 100 µM; GI50 [20]: 14.6 µM; TGI [20]: > 100 µM; GI50 [21]: 5.93 µM; TGI [21]: > 100 µM; GI50 [22]: 6.26 µM; TGI [22]: > 100 µM; GI50 [23]: 4.69 µM; TGI [23]: > 100 µM; GI50 [24]: 2.76 µM; TGI [24]: > 100 µM; GI50 [25]: 8.66 µM; TGI [25]: > 100 µM; GI50 [26]: 4.61 µM; TGI [26]: > 100 µM; GI50 [27]: 5.08 µM; TGI [27]: > 100 µM; GI50 [28]: 8.45 µM; TGI [28]: > 100 µM; GI50 [29]: 5.07 µM; TGI [29]: > 100 µM; GI50 [30]: 3.79 µM; TGI [30]: > 100 µM; GI50 [31]: 2.55 µM; TGI [31]: 8.33 µM; GI50 [32]: 3.48 µM; TGI [32]: > 100 µM; GI50 [33]: 7.3 µM; TGI [33]: > 100 µM; GI50 [34]: 5.67 µM; TGI [34]: > 100 µM; GI50 [35]: 6.5 µM; TGI [35]: > 100 µM; GI50 [36]: 2.89 µM; TGI [36]: > 100 µM; GI50 [38]: 3.81 µM; TGI [38]: > 100 µM; GI50 [39]: 4.7 µM; TGI [39]: > 100 µM; GI50 [40]: 5.47 µM; TGI [40]: > 100 µM; GI50 [41]: 6.43 µM; TGI [41]: > 100 µM; GI50 [43]: 5.34 µM; TGI [43]: > 100 µM; GI50 [44]: 8.33 µM; TGI [44]: > 100 µM; GI50 [45]: 4.11 µM; TGI [45]: > 100 µM; GI50 [46]: 5.04 µM; TGI [46]: > 100 µM; GI50 [47]: 5.09 µM; TGI [47]: > 100 µM; GI50 [48]: 6.45 µM; TGI [48]: 90.7 µM; GI50 [50]: 12.1 µM; TGI [50]: 77.6 µM; GI50 [51]: 3.25 µM; TGI [51]: > 100 µM; GI50 [53]: 4.35 µM; TGI [53]: > 100 µM; GI50 [54]: 74.4 µM; TGI [54]: > 100 µM; GI50 [55]: 6.59 µM; TGI [55]: > 100 µM; GI50 [56]: 2.77 µM; TGI [56]: 44.9 µM
